Where two headings read alike, the source gives them in different places.
Molecular target: T1, human Edg-1 (S1P1) (Homo sapiens, UniProt P21453)
T1 construct: expressed in transfected cells; host or cells: HEK-293
Assay: S1P1 binding inhibition test (membrane, [33P]-S1P)
Settings: for inhibition at 10 µM: read-out: Binding test (membrane) % inhibition (10 μM); for IC50: membrane system binding test, various concentrations
Experimental: The membrane fraction was obtained by treating the cells with a solubilizing buffer (1 mM Tris/HCl, pH 7.2) for 10 minutes on ice, centrifuging at 1000×g for 5 minutes to remove insoluble fractions, and then centrifuging at 40000×g for 30 minutes at 4° C. The resulting membrane fraction was dissolved in a binding buffer (20 mM Tris-HCl, pH 7.4, 100 mM NaCl, 15 mM NaF, 2 mM deoxypyridoxine, 4 mg/mL fatty acid-free BSA), and then [^33P]-S1P (manufactured by ARC, final concentration 0.1 nM) and a DMSO solution (final concentration of the compound 10^−5 M, final concentration of DMSO 0.1%) of the test compound were added. Thereafter, the mixture was stirred and then treated for one hour at 30° C. Using a harvester, the membrane fraction was harvested onto unifilter-96 GF/C filter (manufactured by Perkin Elmer), washing was carried out four times with the binding buffer, and the filter was dried. Twenty five μL Microscint 0 (manufactured by Perkin Elmer) was added, and radioactivity was measured using Top Count NXT (manufactured by Packard) to calculate the amount (A) of [^33P]-S1P bound to the membrane fraction at the time when the compound was added.
The same procedure was carried out in the absence of the test compound, and the amount (B) of [^33P]-S1P bound was calculated. Further, the same procedure was carried out in the absence of the test compound by use of HEK-293 cells to which no Edg-1 (S1P1) gene was introduced, and the background amount (C) of [^33P]-S1P bound was calculated.
Inhibition rate (%)=[1−(A−C)/(B−C)]×100.
Moreover, the concentration required for a test compound to produce 50% inhibition of the binding caused in the absence of the test compound was also calculated (IC50). The above membrane system binding test was performed in the presence of a test compound at various concentrations to calculate the inhibition rate of Edg-1(S1P1) binding at each concentration according to the above equation, followed by calculating an IC50 value for each compound with data analysis software, Origin (Lightstone Corp., Japan).

[1] = compound 10 μM, [33P]-S1P 0.1 nM, human Edg-1 (S1P1) HEK-293 membrane fraction

T1 sequence (P21453 whole entry): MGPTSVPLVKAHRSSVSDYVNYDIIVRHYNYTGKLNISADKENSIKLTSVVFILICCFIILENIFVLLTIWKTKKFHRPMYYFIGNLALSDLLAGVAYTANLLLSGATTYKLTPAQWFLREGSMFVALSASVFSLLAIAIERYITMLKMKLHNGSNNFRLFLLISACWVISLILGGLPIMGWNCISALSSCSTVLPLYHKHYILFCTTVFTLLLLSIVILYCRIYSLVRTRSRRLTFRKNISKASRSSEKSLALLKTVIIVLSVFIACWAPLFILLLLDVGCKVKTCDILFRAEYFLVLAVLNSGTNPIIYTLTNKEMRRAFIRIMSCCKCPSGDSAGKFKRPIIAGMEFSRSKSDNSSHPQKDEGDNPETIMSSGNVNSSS

inhibition at 10 µM [1] [%]	IC50 [nM]	SMILES	inhibition at 10 µM [%]
77.5	–	CCn1c(C(C)NS(=O)(=O)c2ccc(Br)cc2Cl)cnc1Oc1ccc(C)cc1 (stereo not shown) [Compound 130]	–
79.8	–	CCn1c(C(C)NS(=O)(=O)c2cc(Cl)ccc2OC)cnc1Oc1ccc(C)cc1 (stereo not shown) [Compound 107]	–
61.2	–	CCn1c(C(C)NS(=O)(=O)c2ccc(F)cc2F)cnc1Oc1ccc(C)cc1 (stereo not shown) [Compound 80]	–
62.5	–	CCn1c(C(C)NS(=O)(=O)c2c(F)cc(F)cc2Br)cnc1Oc1ccc(C)cc1 (stereo not shown) [Compound 118]	–
86.4	–	CCn1c(C(C)NS(=O)(=O)c2ccc(F)cc2C)cnc1Oc1ccc(C)cc1 (stereo not shown) [Compound 127]	–
87.3	–	CCn1c(C(C)NS(=O)(=O)c2cccc(OC(F)F)c2)cnc1Oc1ccc(C)cc1 (stereo not shown) [Compound 117]	–
80.1	–	CCn1c(C(C)NS(=O)(=O)c2ccc(Br)cc2F)cnc1Oc1ccc(C)cc1 (stereo not shown) [Compound 95]	–
65.6	–	CCc1cc(Br)ccc1S(=O)(=O)NC(C)c1cnc(Oc2ccc(C)cc2)n1CC (stereo not shown) [Compound 87]	–
94.1	–	CCn1c(C(C)NS(=O)(=O)c2ccc3c(c2)OCCO3)cnc1Oc1ccc(C)cc1 (stereo not shown) [Compound 144]	–
71.8	–	CCn1c(C(C)NS(=O)(=O)c2ccc(C#N)cc2Cl)cnc1Oc1ccc(C)cc1 (stereo not shown) [Compound 89]	–
107	–	CCn1c(C(C)NS(=O)(=O)c2cc(C)c(Cl)cc2Cl)cnc1Oc1ccc(C)cc1 (stereo not shown) [Compound 101]	–
57.8	–	CCn1c(C(C)NS(=O)(=O)c2cccc3nsnc23)cnc1Oc1ccc(C)cc1 (stereo not shown) [Compound 146]	–
65.6	–	CCn1c(C(C)NS(=O)(=O)c2ccc(C(F)(F)F)cc2Br)cnc1Oc1ccc(C)cc1 (stereo not shown) [Compound 124]	–
98.1	≤ 35	CCn1c(C(C)NS(=O)(=O)c2ccc(Cl)c(Cl)c2)cnc1Oc1cccc(NS(C)(=O)=O)c1 (stereo not shown) [Compound 234, 3,4-Dichloro-N-{1-[3-ethyl-2-(3-methanesulfonylaminophenoxy)-3H-imidazol-4-yl]-ethyl}-benzenesulfonamide]	–
83.1	–	CCn1c(C(C)NS(=O)(=O)c2cc(OC)ccc2OC)cnc1Oc1ccc(C)cc1 (stereo not shown) [Compound 81]	–
71.2	–	CCn1c(C(C)NS(=O)(=O)c2cccc(C(C)=O)c2)cnc1Oc1ccc(C)cc1 (stereo not shown) [Compound 161]	–
91.1	–	CCn1c(C(C)NS(=O)(=O)c2cc(F)cc(F)c2)cnc1Oc1ccc(C)cc1 (stereo not shown) [Compound 119]	–

inhibition at 10 µM [1] [%]	IC50 [nM]	SMILES	inhibition at 10 µM [%]
99.3	–	CCn1c(C(C)NS(=O)(=O)c2ccc(C)c(F)c2)cnc1Oc1ccc(C)cc1 (stereo not shown) [Compound 126]	–
97.2	≤ 70	CCn1c(C(C)NS(=O)(=O)c2ccc(Cl)c(Cl)c2)cnc1Oc1ccc(Cl)cc1 (stereo not shown) [Compound 189, 3,4-Dichloro-N-{1-[3-ethyl-2-(4-chlorophenoxy)-3H-imidazol-4-yl]-ethyl}-benzenesulfonamide]	–
83.4	–	CCn1c(C(C)NS(=O)(=O)c2cccc(Cl)c2F)cnc1Oc1ccc(C)cc1 (stereo not shown) [Compound 135]	–
90.1	–	CCn1c(C(C)NS(=O)(=O)c2ccc(Cl)cc2Cl)cnc1Oc1ccc(C)cc1 (stereo not shown) [Compound 79]	–
102	–	CCn1c(C(C)NS(=O)(=O)c2ccc(Br)c(F)c2)cnc1Oc1ccc(C)cc1 (stereo not shown) [Compound 129]	–
90.2	–	CCn1c(C(C)N(C)S(=O)(=O)c2ccc(Cl)c(Cl)c2)cnc1Oc1ccc(Cl)cc1 (stereo not shown) [Compound 248, 3,4-Dichloro-N-{1-[2-(4-chlorophenoxy)-3-ethyl-3H-imidazol-4-yl]-ethyl}-N-methyl-benzenesulfonamide]	–
70.9	–	CCn1c(C(C)NS(=O)(=O)c2cc(C(F)(F)F)ccc2Cl)cnc1Oc1ccc(C)cc1 (stereo not shown) [Compound 104]	–
95.3	14.3	CCn1c(C(C)NS(=O)(=O)c2ccc(Cl)c(Cl)c2)cnc1Oc1cccc(N2CCN(C)CC2)c1 (stereo not shown) [Compound 184, 3,4-Dichloro-N-(1-{3-ethyl-2-[3-(4-methylpiperazin-1-yl)-phenoxy]-3H-imidazol-4-yl}-ethyl)-benzenesulfonamide]	–
86.4	–	CCn1c(C(C)NS(=O)(=O)c2cc(Br)ccc2Br)cnc1Oc1ccc(C)cc1 (stereo not shown) [Compound 110]	–
100	–	CCC(NS(=O)(=O)c1ccc(Cl)c(Cl)c1)c1cnc(Oc2ccc(F)cc2)n1CC (stereo not shown) [Compound 191, 3,4-Dichloro-N-{1-[3-ethyl-2-(4-fluorophenoxy)-3H-imidazol-4-yl]-propyl}-benzenesulfonamide]	–
70.6	–	CCn1c(C(C)NS(=O)(=O)c2ccc(F)cc2Br)cnc1Oc1ccc(C)cc1 (stereo not shown) [Compound 123]	–
78.2	–	CCn1c(C(C)NS(=O)(=O)c2ccc(OC(F)F)cc2)cnc1Oc1ccc(C)cc1 (stereo not shown) [Compound 116]	–
68.6	–	CC[C@H](NS(=O)(=O)c1ccc(Cl)c(Cl)c1)c1cnc(Oc2ccc(F)cc2)n1CC [Compound 254, (S)-(−)-3,4-Dichloro-N-{1-[3-ethyl-2-(4-fluorophenoxy)-3H-imidazol-4-yl]-propyl}-benzenesulfonamide]	–
96.3	–	CCn1c(C(C)NS(=O)(=O)c2ccc(Cl)c(Cl)c2)cnc1OCCCN1CCN(C)CC1 (stereo not shown) [Compound 251]	–
64.2	–	CCn1c(C(C)NS(=O)(=O)c2csc3ccccc23)cnc1Oc1ccc(C)cc1 (stereo not shown) [Compound 178]	–
77.8	–	CCn1c(C(C)NS(=O)(=O)c2ccc(Br)cc2Br)cnc1Oc1ccc(C)cc1 (stereo not shown) [Compound 113]	–

More lines, now with the values behind:

SMILES	inhibition at 10 µM [1] [%]	IC50 [nM]	inhibition at 10 µM [%]
CCn1c(C(C)NS(=O)(=O)c2cc(F)ccc2C)cnc1Oc1ccc(C)cc1 (stereo not shown) [Compound 70]	56.8	–	–
CCn1c(C(C)NS(=O)(=O)c2c(F)c(F)c(F)c(F)c2F)cnc1Oc1ccc(C)cc1 (stereo not shown) [Compound 30]	75.8	–	–
C=Cc1ccc(S(=O)(=O)NC(C)c2cnc(Oc3ccc(C)cc3)n2CC)cc1 (stereo not shown) [Compound 40]	81.2	–	–
CCn1c(C(C)NS(=O)(=O)c2ccc3ccccc3c2)cnc1Oc1ccc(C)cc1 (stereo not shown) [Compound 28]	114	–	–
CCn1c(C(C)NS(=O)(=O)c2c(Cl)cccc2Cl)cnc1Oc1ccc(C)cc1 (stereo not shown) [Compound 18]	72.8	–	–
CCn1c(C(C)NS(=O)(=O)c2cc(Br)ccc2OC)cnc1Oc1ccc(C)cc1 (stereo not shown) [Compound 69]	82.9	–	–
CCn1c(C(C)NS(=O)(=O)c2ccc(F)cc2Cl)cnc1Oc1ccc(C)cc1 (stereo not shown) [Compound 82]	–	–	64.2
CCn1c(C(C)NS(=O)(=O)c2cccc(C(F)(F)F)c2)cnc1Oc1ccc(C)cc1 (stereo not shown) [Compound 37]	98.5	–	–
CCn1c(C(C)NS(=O)(=O)c2ccc(OC)c(OC)c2)cnc1Oc1ccc(C)cc1 (stereo not shown) [Compound 19]	87.3	–	–
CCn1c(C(C)NS(=O)(=O)c2cc(C(F)(F)F)cc(C(F)(F)F)c2)cnc1Oc1ccc(C)cc1 (stereo not shown) [Compound 62]	85.6	–	–
CCn1c(C(C)NS(=O)(=O)c2cccc(C)c2)cnc1Oc1ccc(C)cc1 (stereo not shown) [Compound 41]	82.3	–	–
CCn1c(C(C)NS(=O)(=O)c2ccc(C)c(Cl)c2)cnc1Oc1ccc(C)cc1 (stereo not shown) [Compound 15]	108	–	–
CCn1c(C(C)NS(=O)(=O)/C=C/c2ccccc2)cnc1Oc1ccc(C)cc1 (stereo not shown) [Compound 32]	93.5	–	–
CCn1c(C(C)NS(=O)(=O)c2cc(C)ccc2C)cnc1Oc1ccc(C)cc1 (stereo not shown) [Compound 45]	85.8	–	–
CCn1c(C(C)NS(=O)(=O)c2cc(C)c(Cl)cc2C)cnc1Oc1ccc(C)cc1 (stereo not shown) [Compound 16]	109	–	–
CCn1c(C(C)NS(=O)(=O)c2ccc(C(C)=O)cc2)cnc1Oc1ccc(C)cc1 (stereo not shown) [Compound 3]	96.7	–	–
CCn1c(C(C)NS(=O)(=O)c2c(C)c(C)c(C)c(C)c2C)cnc1Oc1ccc(C)cc1 (stereo not shown) [Compound 71]	72	–	–
CCn1c(C(C)NS(=O)(=O)c2ccc(-c3csnn3)s2)cnc1Oc1ccc(C)cc1 (stereo not shown) [Compound 46]	58.8	–	–
CCn1c(C(C)NS(=O)(=O)c2cccc(Cl)c2C)cnc1Oc1ccc(C)cc1 (stereo not shown) [Compound 64]	96.7	–	–
CCn1c(C(C)NS(=O)(=O)c2ccc(C(F)(F)F)cc2)cnc1Oc1ccc(C)cc1 (stereo not shown) [Compound 44]	93.5	–	–
CCn1c(C(C)NS(=O)(=O)c2cc(F)c(Br)cc2F)cnc1Oc1ccc(C)cc1 (stereo not shown) [Compound 67]	84.6	–	–
CCn1c(C(C)NS(=O)(=O)c2ccc(C)cc2)cnc1Oc1ccc(C)cc1 (stereo not shown) [Compound 35]	98.1	–	–
CCn1c(C(C)NS(=O)(=O)c2ccc(Br)c(Br)c2)cnc1Oc1ccc(C)cc1 (stereo not shown) [Compound 72]	90.1	–	–
CCn1c(C(C)NS(=O)(=O)c2c(C)cccc2Cl)cnc1Oc1ccc(C)cc1 (stereo not shown) [Compound 60]	64.5	–	–
CCn1c(C(C)NS(=O)(=O)c2ccc(S(C)(=O)=O)cc2)cnc1Oc1ccc(C)cc1 (stereo not shown) [Compound 25]	62	–	–

— patent US7994204B2, “Binding inhibitor of sphingosine-1-phosphate” (Taisho Pharmaceutical Co., Ltd, priority 2006, dated 2011)
